Assay results: patent US10961200B2, “Small molecule inhibitors of lactate dehydrogenase and methods of use thereof” (THE UNITED STATES OF AMERICA, AS REPRESENTED BY THE …, priority 2014, dated 2021)

Experiments:
[1] = test system: MiaPaCa2 cells; assay: cell-based HT lactate assay, colorimetric/fluorometric detection (inhibition of lactate production); details: class symbols, 0 to 3 pluses
Description: Cell-based HT Lactate assay is a miniaturized Biovision Lactate Colorimetric/Fluorometric Assay Kit (Cat #K607-100). The assay is roughly a 3.5 hour assay run in a 1536 plate format. Cell number optimization should be run for each cell line to achieve an optimal number in which lactate production equals roughly 90% of the standard curve range. Cell number per well optimization has been performed with the following cell lines: MiaPaCa2—500 cells/well, SNU398—500 cells/well, and P493—500 cells/well.
The lactate activity in Table 8 is represented by 0 to 3 pluses as follows: +++<1 μM; ++1-10 μM; +10-57 μM; and −>57 μM.

[2] = molecular target: Human LDHA (Homo sapiens (Human), UniProt P00338); assay: human LDHA primary biochemical assay (resazurin/diaphorase coupled, fluorescence); details: LDHA inhibitory activity
Description: Test compounds were placed in a Greiner Bio-One (Monroe, N.C.) 1536-well black solid bottom assay plate. 200 millimolar (mM) Tris HCl, pH 7.4, 100 micromolar […] EDTA and 0.01% TWEEN-20™, final concentration, was used as the assay buffer. The LDHA reagent was 2 nanomolar (nM) Human LDHA (Meridian Life Science, Inc., Memphis, Tenn.), final concentration, in assay buffer.

[3] = assay of Example 1, activity level classes
[4] = activity level based on IC50 (Table 7)

Compound	IC50 [1] [nM]	IC50 [2, 3] [nM]	IC50 ([1]; Homo sapiens, MIA PaCa-2) [nM]	IC50 [2, 4] [nM]
Cc1ccc(-c2cc(-c3nn(-c4nc(C(=O)O)cs4)c(CC4CC4)c3Cc3ccc(S(N)(=O)=O)cc3)ccc2F)cc1 [Compound 284]	< 1000	< 100	–	–
Cc1ccc(-c2cc(-c3nn(-c4nc(C(=O)O)cs4)c(CC4CC4)c3Cc3ccc(S(N)(=O)=O)c(F)c3)ccc2F)cc1 [Compound 288]	< 1000	< 100	–	–
NS(=O)(=O)c1ccc(Cc2c(-c3cccc(-c4ccccc4)c3)nn(-c3nc(C(=O)O)cs3)c2CC2CC2)c(F)c1 [Compound 290]	< 1000	< 100	–	–
N[S+](=O)([O-])c1ccc(Cc2c(-c3ccc(F)c(-c4ccc(C5CC5)cc4)c3)nn(-c3nc(C(=O)O)cs3)c2CC2CC2)cc1 [Compound 294]	< 1000	< 100	–	–
NS(=O)(=O)c1ccc(Cc2c(-c3ccc(F)c(Br)c3)nn(-c3nc(C(=O)O)cs3)c2CC2CC2)cc1 [Compound 296]	1000 to 10000	< 100	–	–
NS(=O)(=O)c1ccc(Cc2c(-c3cccc(-c4ccccc4)c3)nn(-c3nc(C(=O)O)cs3)c2CC(F)(F)F)cc1 [Compound 304]	10000 to 57000	100 to 1000	–	–
CC(C)c1ccc(-c2cc(-c3nn(-c4nc(C(=O)O)cs4)c(CC4CC4)c3Cc3ccc([S+](N)(=O)[O-])cc3)ccc2F)cc1 [Compound 306]	< 1000	< 100	–	–
Cc1ccc(-c2cc(-c3nn(-c4nc(C(=O)O)cs4)c(CC4CC4)c3Cc3ccc(S(N)(=O)=O)cc3F)ccc2F)cc1 [Compound 307]	< 1000	< 100	–	–
N[S+](=O)([O-])c1ccc(Cc2c(-c3ccc(F)c(-c4ccc(F)cc4)c3)nn(-c3nc(C(=O)O)cs3)c2CC2CC2)c(F)c1 [Compound 309]	< 1000	< 100	–	–
N[S+](=O)([O-])c1ccc(Cc2c(-c3ccc(F)c(-c4ccc(F)cc4)c3)nn(-c3nc(C(=O)O)cs3)c2CC2CC2)cc1 [Compound 310]	< 1000	< 100	–	–
N[S+](=O)([O-])c1ccc(Cc2c(-c3ccc(F)c(-c4cccc(F)c4)c3)nn(-c3nc(C(=O)O)cs3)c2CC2CC2)c(F)c1 [Compound 324]	< 1000	< 100	–	–
N[S+](=O)([O-])c1ccc(Cc2c(-c3ccc(F)c(-c4cccc(F)c4)c3)nn(-c3nc(C(=O)O)cs3)c2CC2CC2)cc1F [Compound 326]	< 1000	< 100	–	–
COc1cccc(-c2cc(-c3c(Cc4ccc(S(N)(=O)=O)cc4F)c(CC4CC4)nn3-c3nc(C(=O)O)cs3)ccc2F)c1 [Compound 327]	10000 to 57000	1000 to 57000	–	–
COc1cccc(-c2cc(-c3nn(-c4nc(C(=O)O)cs4)c(CC4CC4)c3Cc3ccc(S(N)(=O)=O)c(F)c3)ccc2F)c1 [Compound 330]	< 1000	< 100	–	–
NS(=O)(=O)c1ccc(Cc2c(-c3cccc(-c4ccccc4)c3)nn(-c3nc(C(=O)O)cs3)c2CC2CC2)cc1F [Compound 331]	< 1000	< 100	–	–
Cc1ccc(-c2cccc(-c3nn(-c4nc(C(=O)O)cs4)c(CC4CC4)c3Cc3ccc(S(N)(=O)=O)c(F)c3)c2)cc1 [Compound 332]	< 1000	< 100	–	–
NS(=O)(=O)c1ccc(Cc2c(-c3cccc(OC4CCCC4)c3)nn(-c3nc(C(=O)O)cs3)c2CC2CC2)cc1F [Compound 336]	< 1000	< 100	–	–
NS(=O)(=O)c1ccc(Cc2c(-c3cccc(OC4CCCC4)c3)nn(-c3nc(C(=O)O)cs3)c2CC2CC2)cc1 [Compound 337]	< 1000	< 100	–	–
N[S+](=O)([O-])c1ccc(Cc2c(-c3cccc(OC4CCCC4)c3)nn(-c3nc(C(=O)O)cs3)c2CC2CC2)c(F)c1 [Compound 338]	–	–	< 1000	< 100
NS(=O)(=O)c1ccc(Cc2c(-c3cccc(-c4cccc(F)c4)c3)nn(-c3nc(C(=O)O)cs3)c2CC2CC2)cc1F [Compound 365]	< 1000	–	–	< 100
N[S+](=O)([O-])c1ccc(Cc2c(-c3ccc(F)c(-c4ccccc4F)c3)nn(-c3nc(C(=O)O)cs3)c2CC2CC2)cc1F [Compound 366]	< 1000	–	–	< 100
N[S+](=O)([O-])c1ccc(Cc2c(-c3ccc(F)c(-c4ccccc4)c3)nn(-c3nc(C(=O)O)cs3)c2CC2CC2)cc1F [Compound 367]	< 1000	–	–	< 100
NS(=O)(=O)c1cccc(Cc2c(-c3ccc(F)c(-c4cccc(F)c4)c3)nn(-c3nc(C(=O)O)cs3)c2CC2CC2)c1 [Compound 368]	10000 to 57000	–	–	1000 to 57000
N[S+](=O)([O-])c1ccc(Cc2c(-c3ccc(F)c(C4=CCNCC4)c3)nn(-c3nc(C(=O)O)cs3)c2CC2CC2)cc1F [Compound 369]	10000 to 57000	–	–	< 100

Compound	IC50 [1] [nM]	IC50 [2, 3] [nM]	IC50 ([1]; Homo sapiens, MIA PaCa-2) [nM]	IC50 [2, 4] [nM]
N[S+](=O)([O-])c1ccc(Cc2c(-c3cccc(-c4cccc(F)c4)c3)nn(-c3nc(C(=O)O)cs3)c2CC2CC2)cc1 [Compound 370]	1000 to 10000	–	–	< 100
N=[S+](N)([O-])c1ccc(Cc2c(-c3ccc(F)c(-c4cccc(F)c4)c3)nn(-c3nc(C(=O)O)cs3)c2CC2CC2)cc1F (stereo not drawn) [Compound 371]	< 1000	–	–	< 100
NS(=O)(=O)c1ccc(Cc2c(-c3cccc(C4CCCC4)c3)nn(-c3nc(C(=O)O)cs3)c2CC2CC2)cc1 [Compound 372]	1000 to 10000	–	–	< 100
NS(=O)(=O)c1ccc(Cc2c(-c3ccc(F)c(C4CCCC4)c3)nn(-c3nc(C(=O)O)cs3)c2CC2CC2)cc1F [Compound 373]	< 1000	–	–	< 100
N[S+](=O)([O-])c1ccc(Cc2c(-c3ccc(F)c(C4CCCCC4)c3)nn(-c3nc(C(=O)O)cs3)c2CC2CC2)cc1F [Compound 374]	< 1000	–	–	< 100
NS(=O)(=O)c1ccc(Cc2c(-c3ccc(F)c(C4C5CC6CC(C5)CC4C6)c3)nn(-c3nc(C(=O)O)cs3)c2CC2CC2)cc1F (stereo not drawn) [Compound 375]	1000 to 10000	–	–	100 to 1000
N[S+](=O)([O-])c1ccc(Cc2c(-c3cccc(S(F)(F)(F)(F)F)c3)nn(-c3nc(C(=O)O)cs3)c2CC2CC2)cc1F [Compound 376]	< 1000	–	–	< 100
CCOC(=O)c1csc(-n2nc(-c3ccc(F)c(-c4cccc(F)c4)c3)c(Cc3ccc([S+](N)(=O)[O-])c(F)c3)c2CC2CC2)n1 [Compound 377]	> 57000	–	–	> 57000
NS(=O)(=O)c1ccc(Cc2c(-c3ccc(F)c(CC4CC4)c3)nn(-c3nc(C(=O)O)cs3)c2CC2CC2)cc1F [Compound 378]	< 1000	–	–	< 100
N[S+](=O)([O-])c1ccc(Cc2c(-c3ccc(F)c(C4=COCCC4)c3)nn(-c3nc(C(=O)O)cs3)c2CC2CC2)cc1F [Compound 379]	< 1000	–	–	< 100
N[S+](=O)([O-])c1ccc(Cc2c(-c3ccc(F)c(C4=CCN(C(=O)C5CC5)CC4)c3)nn(-c3nc(C(=O)O)cs3)c2CC2CC2)cc1F [Compound 380]	1000 to 10000	–	–	< 100
CCC(C)(C)c1cc(-c2nn(-c3nc(C(=O)O)cs3)c(CC3CC3)c2Cc2ccc(S(N)(=O)=O)c(F)c2)ccc1F [Compound 381]	< 1000	–	–	< 100
N[S+](=O)([O-])c1ccc(Cc2c(-c3ccc(F)c(C4CCC4)c3)nn(-c3nc(C(=O)O)cs3)c2CC2CC2)cc1F [Compound 382]	< 1000	–	–	< 100
CC(C)c1cc(-c2nn(-c3nc(C(=O)O)cs3)c(CC3CC3)c2Cc2ccc(S(N)(=O)=O)c(F)c2)ccc1F [Compound 383]	< 1000	–	–	< 100
CC(c1ccccc1)c1cc(-c2nn(-c3nc(C(=O)O)cs3)c(CC3CC3)c2Cc2ccc(S(N)(=O)=O)c(F)c2)ccc1F (stereo not drawn) [Compound 384]	< 1000	–	–	< 100
N[S+](=O)([O-])c1ccc(Cc2c(-c3ccc(F)c(C4CC4)c3)nn(-c3nc(C(=O)O)cs3)c2CC2CC2)cc1F [Compound 385]	< 1000	–	–	< 100
CC(C)(C)Cc1cc(-c2nn(-c3nc(C(=O)O)cs3)c(CC3CC3)c2Cc2ccc(S(N)(=O)=O)c(F)c2)ccc1F [Compound 386]	< 1000	–	–	< 100
N[S+](=O)([O-])c1ccc(Cc2c(-c3ccc(F)c(-c4cccc(CN5CCOCC5)c4)c3)nn(-c3nc(C(=O)O)cs3)c2CC2CC2)cc1F [Compound 387]	1000 to 10000	–	–	< 100
N[S+](=O)([O-])c1ccc(Cc2c(-c3ccc(F)c(CCCCC(F)(F)F)c3)nn(-c3nc(C(=O)O)cs3)c2CC2CC2)cc1F [Compound 388]	1000 to 10000	–	–	< 100
CNS(=N)(=O)c1ccc(Cc2c(-c3ccc(F)c(-c4cccc(F)c4)c3)nn(-c3nc(C(=O)O)cs3)c2CC2CC2)cc1F (stereo not drawn) [Compound 389]	1000 to 10000	–	–	100 to 1000
CN1CCC(c2cc(-c3nn(-c4nc(C(=O)O)cs4)c(CC4CC4)c3Cc3ccc([S+](N)(=O)[O-])c(F)c3)ccc2F)CC1 [Compound 390]	> 57000	–	–	< 100
N[S+](=O)([O-])c1ccc(Cc2c(-c3ccc(F)c(C4CCOCC4)c3)nn(-c3nc(C(=O)O)cs3)c2CC2CC2)cc1F [Compound 391]	< 1000	–	–	< 100
CCOC(=O)c1csc(-n2nc(-c3cccc(-c4ccccc4)c3)c(Cc3ccc(S(N)(=O)=O)c(F)c3)c2CC2CC2)n1 [Compound 393]	> 57000	–	–	> 57000
NS(=O)(=O)c1ccc(Cc2c(-c3cccc(N4CCC(F)(F)CC4)c3)nn(-c3nc(C(=O)O)cs3)c2CC2CC2)cc1F [Compound 394]	10000 to 57000	–	–	< 100
